Laboratory results reported in patent US9999622B2, “Pyrazolothiazole compound and medicine comprising same” (NIPPON SHINYAKU CO., LTD., priority 2014, dated 2018).

Tests used:
Format in all cases: biochemical
JAK1 = target: T1, JAK1 (Homo sapiens, UniProt P23458); assay: JAK tyrosine kinase inhibitory activity in the presence of 1 mM ATP (ELISA), JAK1
T1 construct: purchased Carna Biosciences, Inc
Protocol: (§1) 1. Preparation of Test Compound
(§2) The test compound was dissolved in dimethyl sulfoxide (DMSO) to 10 mM and further diluted with DMSO to the concentrations of 1000, 100, 10, 1, 0.1 and 0.01 μM, respectively. For JAK1, these solutions of the test compound at the six concentrations 10 mM, 1000 μM, 100 μM, 10 μM, 1 μM and 0.1 μM were used. For JAK2 and JAK3, these solutions of the test compound at the six concentrations 1000 μM, 100 μM, 10 μM, 1 μM, 0.1 μM and 0.01 μM were used. The test compound solutions were diluted further to 20-fold with an assay buffer to obtain a sample solution. 15 mM Tris-HCl (pH7.5), 0.01 (v/v) % Tween-20 and 1 mM dithiothreitol were used as an assay buffer. DMSO was diluted to 20-fold with the assay buffer and was used as a negative control.
(§3) 2. JAK Tyrosine Kinase Inhibitory Activity in the Presence of 1 mM Atp
(§4) The activity was determined by ELISA method. Each of the sample solutions was added to a streptavidine coated 96-well plate (DELFIA Strip Plate 8×12 well, PerkinElmer) at 10 μL/well (n=2). […] Finally, JAK tyrosine kinase (Carna Biosciences, Inc.), which was previously diluted with the assay buffer to 7.5 nM for JAK1 and 0.75 nM for JAK2 and JAK3, was added to the plate at 20 μL/well, and the plate was incubated at 30° C. for 1 h. The plate was washed four times with buffer (50 mM Tris-HCl (pH 7.5), 150 mM NaCl, 0.02 (v/v) % Tween-20). A blocking buffer (0.1% Bovine Serum Albumin, 50 mM Tris-HCl (pH 7.5), 150 mM NaCl, 0.02 (v/v) % Tween-20) was added to the plate at 150 μL/well and the plate was blocked at 30° C. for 1 h. The blocking buffer was removed, and a horse radish peroxidase-labeled anti-phosphorylated tyrosine antibody (BD Biosciences, Inc.) (diluted to 10000-fold with the blocking buffer) was added to the plate at 100 μL/well, and the plate was incubated at 30° C. for 30 min. The plate was washed with the washing buffer four times, and 3,3′,5,5′-tetramethylbenizidine solution (Nacalai Tesque) was added to the plate at 100 μL/well to develop the color for 10 minutes. To the plate was added 0.1 M sulfuric acid at 100 μL/well to stop the reaction. The absorbance at 450 nm was measured using a microplate reader (BIO-RAD).
(§5) 3. Analysis of the Results

JAK2 = target: T2, JAK2 (Homo sapiens, UniProt O60674); assay: JAK tyrosine kinase inhibitory activity in the presence of 1 mM ATP (ELISA), JAK2
T2 construct: purchased Carna Biosciences, Inc
Protocol: as §1, §2, §3, §4, §5

JAK3 = target: T3, JAK3 (Homo sapiens, UniProt P52333); assay: JAK tyrosine kinase inhibitory activity in the presence of 1 mM ATP (ELISA), JAK3
T3 construct: purchased Carna Biosciences, Inc
T3 sequence (P52333 1-1124): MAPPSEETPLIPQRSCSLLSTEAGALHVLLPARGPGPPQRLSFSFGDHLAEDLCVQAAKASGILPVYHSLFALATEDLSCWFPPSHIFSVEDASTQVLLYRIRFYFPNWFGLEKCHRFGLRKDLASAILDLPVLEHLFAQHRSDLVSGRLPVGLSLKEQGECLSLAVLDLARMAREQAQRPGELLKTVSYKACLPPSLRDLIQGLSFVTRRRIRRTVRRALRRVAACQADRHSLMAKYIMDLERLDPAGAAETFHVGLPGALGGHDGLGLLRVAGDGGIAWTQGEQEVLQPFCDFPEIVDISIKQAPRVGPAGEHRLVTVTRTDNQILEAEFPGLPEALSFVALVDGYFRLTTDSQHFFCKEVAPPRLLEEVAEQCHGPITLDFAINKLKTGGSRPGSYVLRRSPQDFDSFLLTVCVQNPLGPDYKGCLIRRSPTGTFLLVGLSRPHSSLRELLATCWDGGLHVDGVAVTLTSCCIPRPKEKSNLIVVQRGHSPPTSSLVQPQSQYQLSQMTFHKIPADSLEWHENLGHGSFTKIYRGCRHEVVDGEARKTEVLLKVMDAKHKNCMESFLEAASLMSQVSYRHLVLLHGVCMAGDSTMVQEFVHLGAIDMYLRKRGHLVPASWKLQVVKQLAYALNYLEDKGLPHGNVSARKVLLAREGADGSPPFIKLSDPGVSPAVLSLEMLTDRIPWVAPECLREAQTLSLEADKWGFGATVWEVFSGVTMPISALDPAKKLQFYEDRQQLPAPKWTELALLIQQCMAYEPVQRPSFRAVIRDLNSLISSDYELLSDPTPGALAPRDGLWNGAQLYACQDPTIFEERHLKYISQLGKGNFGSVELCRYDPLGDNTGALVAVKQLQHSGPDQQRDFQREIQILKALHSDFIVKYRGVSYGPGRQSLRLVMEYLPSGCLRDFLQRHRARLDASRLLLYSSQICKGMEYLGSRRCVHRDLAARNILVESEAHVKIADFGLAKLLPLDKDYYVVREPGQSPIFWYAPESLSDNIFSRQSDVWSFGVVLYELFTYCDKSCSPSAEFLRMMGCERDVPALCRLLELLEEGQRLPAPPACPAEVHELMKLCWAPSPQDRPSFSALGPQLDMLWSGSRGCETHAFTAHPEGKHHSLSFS
Protocol: as §1, §2, §3, §4, §5

T1 sequence (P23458 whole entry): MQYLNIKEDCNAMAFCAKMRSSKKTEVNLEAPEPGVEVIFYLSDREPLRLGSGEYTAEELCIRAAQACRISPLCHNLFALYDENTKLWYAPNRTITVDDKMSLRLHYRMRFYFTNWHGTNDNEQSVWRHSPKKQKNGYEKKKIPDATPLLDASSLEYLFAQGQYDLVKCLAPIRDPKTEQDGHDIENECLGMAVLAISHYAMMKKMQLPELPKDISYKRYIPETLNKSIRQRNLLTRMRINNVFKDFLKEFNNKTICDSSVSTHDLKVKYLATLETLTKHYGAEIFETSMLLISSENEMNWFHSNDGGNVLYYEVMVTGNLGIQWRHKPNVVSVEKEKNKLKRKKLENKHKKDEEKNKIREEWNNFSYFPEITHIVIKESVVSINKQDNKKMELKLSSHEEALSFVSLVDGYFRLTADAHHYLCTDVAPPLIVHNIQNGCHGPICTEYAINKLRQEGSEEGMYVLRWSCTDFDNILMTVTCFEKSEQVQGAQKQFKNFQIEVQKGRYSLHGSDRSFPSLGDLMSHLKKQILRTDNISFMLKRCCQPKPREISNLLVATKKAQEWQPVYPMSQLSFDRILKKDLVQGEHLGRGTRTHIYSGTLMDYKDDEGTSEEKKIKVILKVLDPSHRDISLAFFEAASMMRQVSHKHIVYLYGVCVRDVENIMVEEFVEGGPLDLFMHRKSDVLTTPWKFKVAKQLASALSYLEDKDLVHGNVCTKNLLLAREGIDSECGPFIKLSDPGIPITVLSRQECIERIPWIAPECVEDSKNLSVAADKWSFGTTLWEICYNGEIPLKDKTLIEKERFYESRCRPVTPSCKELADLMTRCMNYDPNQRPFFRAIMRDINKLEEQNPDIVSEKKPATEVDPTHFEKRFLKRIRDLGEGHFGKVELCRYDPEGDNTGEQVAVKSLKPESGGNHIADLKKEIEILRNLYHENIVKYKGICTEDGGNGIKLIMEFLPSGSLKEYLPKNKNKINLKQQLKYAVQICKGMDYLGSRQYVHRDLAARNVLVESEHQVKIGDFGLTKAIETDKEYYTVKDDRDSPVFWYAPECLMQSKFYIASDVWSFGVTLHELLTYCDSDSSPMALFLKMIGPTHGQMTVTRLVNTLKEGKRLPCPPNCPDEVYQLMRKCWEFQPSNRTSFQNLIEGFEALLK
T2 sequence (O60674 whole entry): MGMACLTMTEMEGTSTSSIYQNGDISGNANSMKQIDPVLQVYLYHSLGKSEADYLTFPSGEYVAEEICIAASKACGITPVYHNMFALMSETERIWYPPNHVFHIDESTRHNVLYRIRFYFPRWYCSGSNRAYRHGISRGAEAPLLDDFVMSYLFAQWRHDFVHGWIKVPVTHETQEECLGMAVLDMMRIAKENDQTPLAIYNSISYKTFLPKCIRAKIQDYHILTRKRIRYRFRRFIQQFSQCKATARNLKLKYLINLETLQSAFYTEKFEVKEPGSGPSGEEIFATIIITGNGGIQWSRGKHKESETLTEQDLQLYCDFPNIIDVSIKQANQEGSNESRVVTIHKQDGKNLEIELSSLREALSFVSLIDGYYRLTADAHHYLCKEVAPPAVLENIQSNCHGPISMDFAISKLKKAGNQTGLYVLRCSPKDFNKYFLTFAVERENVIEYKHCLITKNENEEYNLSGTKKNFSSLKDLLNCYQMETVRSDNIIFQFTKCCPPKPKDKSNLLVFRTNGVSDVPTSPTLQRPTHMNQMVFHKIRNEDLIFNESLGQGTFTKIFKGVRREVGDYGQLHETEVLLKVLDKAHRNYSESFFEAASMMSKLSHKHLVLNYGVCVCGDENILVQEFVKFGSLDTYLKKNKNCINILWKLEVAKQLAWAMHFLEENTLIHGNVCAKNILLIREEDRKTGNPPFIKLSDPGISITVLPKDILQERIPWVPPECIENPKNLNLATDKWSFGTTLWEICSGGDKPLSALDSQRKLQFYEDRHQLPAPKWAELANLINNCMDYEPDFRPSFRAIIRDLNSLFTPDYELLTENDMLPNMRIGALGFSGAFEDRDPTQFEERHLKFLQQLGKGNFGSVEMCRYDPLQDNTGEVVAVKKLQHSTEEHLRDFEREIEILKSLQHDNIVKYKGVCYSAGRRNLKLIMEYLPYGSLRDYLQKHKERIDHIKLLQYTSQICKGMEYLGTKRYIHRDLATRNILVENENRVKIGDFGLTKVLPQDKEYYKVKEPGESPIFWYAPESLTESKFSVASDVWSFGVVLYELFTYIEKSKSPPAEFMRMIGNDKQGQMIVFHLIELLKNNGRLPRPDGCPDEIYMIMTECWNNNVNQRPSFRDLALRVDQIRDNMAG

Row | SMILES | IC50 (JAK1) [nM] | IC50 (JAK2) [nM] | IC50 (JAK3) [nM]
1 | CC(=O)NC1CCN(C(=O)c2cc(N[C@@H](C)C3CC3)nc(-c3cnn4ccsc34)n2)CC1 [Example 2, N-(1-{[6-{[(1S)-1-Cyclopropylethyl]amino}-2-(pyrazolo[5,1-b][1,3]thiazol-7-yl)pyrimidin-4-yl]carbonyl}piperidin-4-yl)acetamide] | 570 | 2100 | 2700
2 | C[C@H](Nc1cc(C(=O)N2CCC(NC(=O)C3CC3)CC2)nc(-c2cnn3ccsc23)n1)C(C)(C)C [Example 3, N-(1-{[6-{[(2S)-3,3-Dimethylbutan-2-yl]amino}-2-(pyrazolo[5,1-b][1,3]thiazol-7-yl)pyrimidin-4-yl]carbonyl}piperidin-4-yl)cyclopropanecarboxamide] | 62 | 1400 | 3200
3 | CC(=O)NC1CCN(C(=O)c2cc(N[C@@H](C)C(C)(C)C)nc(-c3cnn4ccsc34)n2)CC1 [Example 4, N-(1-{[6-{[(2S)-3,3-Dimethylbutan-2-yl]amino}-2-(pyrazolo[5,1-b][1,3]thiazol-7-yl)pyrimidin-4-yl]carbonyl}piperidin-4-yl)acetamide] | 210 | 730 | 3000
4 | CN(c1cc(C(=O)N2CCC(NC(=O)C3CC3)CC2)nc(-c2cnn3ccsc23)n1)[C@H]1CCC[C@@H]1OC(F)F [Example 5, N-(1-{[6-{[(1S,2S)-2-(Difluoromethoxy)cyclopentyl](methyl)amino}-2-(pyrazolo[5,1-b][1,3]thiazol-7-yl)pyrimidin-4-yl]carbonyl}piperidin-4-yl)cyclopropanecarboxamide] | 130 | 2500 | 1400
5 | CC(=O)NC1CCN(C(=O)c2nc(-c3cnn4ccsc34)nc(N[C@@H](C)C(C)(C)C)c2C)CC1 [Example 6, N-(1-{[6-{[(2S)-3,3-Dimethylbutan-2-yl]amino}-5-methyl-2-(pyrazolo[5,1-b][1,3]thiazol-7-yl)pyrimidin-4-yl]carbonyl}piperidin-4-yl)acetamide] | 240 | 1800 | 2800
6 | Cc1c(N[C@@H](C)C(C)(C)C)nc(-c2cnn3ccsc23)nc1C(=O)N1CCC(NC(=O)C2CC2)CC1 [Example 7, N-(1-{[6-{[(2S)-3,3-Dimethylbutan-2-yl]amino}-5-methyl-2-(pyrazolo[5,1-b][1,3]thiazol-7-yl)pyrimidin-4-yl]carbonyl}piperidin-4-yl)cyclopropanecarboxamide] | 69 | > 10000 | 2700
7 | O=C(NC1CCN(C(=O)c2cc(NCC3(COC(F)F)CC3)nc(-c3cnn4ccsc34)n2)CC1)C1CC1 [Example 8, N-[1-({6-[({1-[(Difluoromethoxy)methyl]cyclopropyl}methyl)amino]-2-(pyrazolo[5,1-b][1,3]thiazol-7-yl)pyrimidin-4-yl}carbonyl)piperidin-4-yl]cyclopropanecarboxamide] | 52 | 2400 | 3800
8 | O=C(NC1CCN(C(=O)c2cc(NCC3(COC(F)F)CCC3)nc(-c3cnn4ccsc34)n2)CC1)C1CC1 [Example 9, N-[1-({6-[({1-[(Difluoromethoxy)methyl]cyclobutyl}methyl)amino]-2-(pyrazolo[5,1-b][1,3]thiazol-7-yl)pyrimidin-4-yl}carbonyl)piperidin-4-yl]cyclopropanecarboxamide] | 19 | 960 | 2000
9 | O=C(NC1CCN(C(=O)c2cc(NCC3(COC(F)F)CCOCC3)nc(-c3cnn4ccsc34)n2)CC1)C1CC1 [Example 11, N-[1-({6-[({4-[(Difluoromethoxy)methyl]tetrahydro-2H-pyran-4-yl}methyl)amino]-2-(pyrazolo[5,1-b][1,3]thiazol-7-yl)pyrimidin-4-yl}carbonyl)piperidin-4-yl]cyclopropanecarboxamide] | 21 | 2500 | 4800
10 | Cc1c(N[C@@H](C)C2CC2)nc(-c2cnn3ccsc23)nc1C(=O)N1CCC(NC(=O)C2CC2)CC1 [Example 12, N-(1-{[6-{[(1S)-1-Cyclopropylethyl]amino}-5-methyl-2-(pyrazolo[5,1-b][1,3]thiazol-7-yl)pyrimidin-4-yl]carbonyl}piperidin-4-yl)cyclopropanecarboxamide] | 120 | 2200 | 1800
11 | CC(=O)NC1CCN(C(=O)c2nc(-c3cnn4ccsc34)nc(N[C@@H](C)C3CC3)c2C)CC1 [Example 13, N-(1-{[6-{[(1S)-1-Cyclopropylethyl]amino}-5-methyl-2-(pyrazolo[5,1-b][1,3]thiazol-7-yl)pyrimidin-4-yl]carbonyl}piperidin-4-yl)acetamide] | 400 | 2400 | 1600
12 | O=C(NC1CCN(C(=O)c2cc(N[C@H]3CCC[C@@H]3OC(F)F)nc(-c3cnn4ccsc34)n2)CC1)C1CC1 [Example 14, N-(1-{[6-{[(1S,2S)-2-(Difluoromethoxy)cyclopentyl]amino}-2-(pyrazolo[5,1-b][1,3]thiazol-7-yl)pyrimidin-4-yl]carbonyl}piperidin-4-yl)cyclopropanecarboxamide] | 69 | 1700 | 1500
13 | COC(=O)NC1CCN(C(=O)c2cc(N[C@H](CO)C(C)(C)C)nc(-c3cnn4ccsc34)n2)CC1 [Example 63, Methyl (1-{[6-{[(2S)-1-hydroxy-3,3-dimethylbutan-2-yl]amino}-2-(pyrazolo[5,1-b][1,3]thiazol-7-yl)pyrimidin-4-yl]carbonyl}piperidin-4-yl)carbamate] | 180 | 7300 | –
14 | COC(=O)NC1CCN(C(=O)c2cc(OC3CCC3)nc(-c3cnn4ccsc34)n2)CC1 [Example 65, Methyl (1-{[6-(cyclobutyloxy)-2-(pyrazolo[5,1-b][1,3]thiazol-7-yl)pyrimidin-4-yl]carbonyl}piperidin-4-yl)carbamate] | 130 | 3100 | –
15 | COC(=O)NC1CCN(C(=O)c2cc(Oc3cccnc3)nc(-c3cnn4ccsc34)n2)CC1 [Example 156, Methyl (1-{[2-(pyrazolo[5,1-b][1,3]thiazol-7-yl)-6-(pyridin-3-yloxy)pyrimidin-4-yl]carbonyl}piperidin-4-yl)carbamate] | 820 | > 10000 | –
16 | C[C@H](Nc1cc(C(=O)N2CCC(NC(=O)C3CCCC3)CC2)nc(-c2cnn3ccsc23)n1)C1CC1 [Example 166, N-1-[6-[(1S)-1-cyclopropylethyl]amino-2-(pyrazolo[5,1-b][1,3]thiazol-7-yl)pyrimidine-4-carbonyl]piperidin-4-ylcyclopentanecarboxamide] | 280 | – | 1300
